Data published in ChEMBL document CHEMBL1139644, “Pharmacophore-based design, synthesis, biological evaluation, and 3D-QSAR studies of aryl-piperazines as alpha(1)-adrenoceptor antagonists” (Bioorg Med Chem Lett, 2005).

Each compound was assayed against T1, Adrenergic receptor alpha-1 (Rattus norvegicus, UniProt P15823+P23944+P43140) (assay: Antagonistic activity for Alpha-1 adrenergic receptor was measured as inhibition of phenylephrine-[…] contractions in isolated Sprague-Dawley rat anacoccygeal muscles).
T1 sequence (P15823 whole entry): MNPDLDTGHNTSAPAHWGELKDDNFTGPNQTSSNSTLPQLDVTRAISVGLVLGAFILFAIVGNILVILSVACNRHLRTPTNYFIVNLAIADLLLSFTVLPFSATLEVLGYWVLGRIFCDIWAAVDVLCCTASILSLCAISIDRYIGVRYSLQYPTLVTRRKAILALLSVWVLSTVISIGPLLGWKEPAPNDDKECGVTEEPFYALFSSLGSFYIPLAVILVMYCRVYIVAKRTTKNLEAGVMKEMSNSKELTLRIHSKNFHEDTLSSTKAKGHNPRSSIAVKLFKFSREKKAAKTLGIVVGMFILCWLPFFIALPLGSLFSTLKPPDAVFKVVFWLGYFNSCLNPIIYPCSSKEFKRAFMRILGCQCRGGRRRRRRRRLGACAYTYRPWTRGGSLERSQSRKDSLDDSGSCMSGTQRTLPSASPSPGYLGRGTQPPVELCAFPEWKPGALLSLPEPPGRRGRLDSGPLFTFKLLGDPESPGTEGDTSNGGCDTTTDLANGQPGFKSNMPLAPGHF
T1 sequence (P23944 whole entry): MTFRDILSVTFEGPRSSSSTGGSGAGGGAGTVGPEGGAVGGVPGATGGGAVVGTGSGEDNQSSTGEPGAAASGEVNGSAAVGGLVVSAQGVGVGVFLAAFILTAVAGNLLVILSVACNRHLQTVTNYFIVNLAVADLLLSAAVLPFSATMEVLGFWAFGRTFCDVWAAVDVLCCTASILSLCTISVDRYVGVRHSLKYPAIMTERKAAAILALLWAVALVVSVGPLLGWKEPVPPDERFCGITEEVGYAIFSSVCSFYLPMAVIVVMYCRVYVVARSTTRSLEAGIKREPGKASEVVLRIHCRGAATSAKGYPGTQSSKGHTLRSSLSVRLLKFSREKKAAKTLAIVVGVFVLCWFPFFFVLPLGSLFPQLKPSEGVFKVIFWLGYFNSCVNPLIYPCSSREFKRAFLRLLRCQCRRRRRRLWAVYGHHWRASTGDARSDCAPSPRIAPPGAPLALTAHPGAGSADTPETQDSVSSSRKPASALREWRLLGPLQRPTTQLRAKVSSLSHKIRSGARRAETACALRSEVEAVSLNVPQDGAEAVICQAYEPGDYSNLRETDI
T1 sequence (P43140 whole entry): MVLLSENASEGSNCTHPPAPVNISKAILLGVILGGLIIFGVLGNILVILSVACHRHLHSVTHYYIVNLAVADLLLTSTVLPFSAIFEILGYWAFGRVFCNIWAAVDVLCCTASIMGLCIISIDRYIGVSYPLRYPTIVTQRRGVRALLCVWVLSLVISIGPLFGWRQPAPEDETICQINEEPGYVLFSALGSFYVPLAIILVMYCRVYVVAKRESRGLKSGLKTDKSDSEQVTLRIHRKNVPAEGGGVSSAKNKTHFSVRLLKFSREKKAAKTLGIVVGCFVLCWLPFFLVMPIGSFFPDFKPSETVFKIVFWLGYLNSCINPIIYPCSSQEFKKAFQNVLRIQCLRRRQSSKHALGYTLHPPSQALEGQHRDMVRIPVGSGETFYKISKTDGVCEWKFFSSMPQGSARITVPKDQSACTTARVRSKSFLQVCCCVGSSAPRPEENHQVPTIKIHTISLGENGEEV
Type: functional

Compound | pA2
COc1ccccc1N1CCN(CCNC(=O)c2ccco2)CC1 | 9.12
Cc1ccc(N2CCN(CCNC(=O)c3ccco3)CC2)c(C)c1 | 7.72
COc1cccc(N2CCN(CCNC(=O)c3ccco3)CC2)c1 | 8.56
COc1ccc(N2CCN(CCNC(=O)c3ccco3)CC2)cc1 | 7.85
COc1ccccc1N1CCN(CCNC(=O)c2cc3ccccc3oc2=O)CC1 | 7.71
COc1ccc(Cl)cc1N1CCN(CCNC(=O)c2ccco2)CC1 | 8.56
COc1ccc(Cl)cc1N1CCN(CCNC(=O)c2cc3ccccc3o2)CC1 | 5.63
Cc1ccc(N2CCN(CCNC(=O)c3cc4ccccc4o3)CC2)c(C)c1 | 7.36
COc1ccc(Cl)cc1N1CCN(CCNC(=O)c2cc3ccccc3oc2=O)CC1 | 7.31
COc1ccc(Cl)cc1N1CCN(CCNC(=O)c2ccncc2)CC1 | 7.18
COc1ccc(N2CCN(CCNC(=O)c3cc4ccccc4oc3=O)CC2)cc1 | 7.74
Cc1ccc(N2CCN(CCNC(=O)c3ccncc3)CC2)c(C)c1 | 7.07

Second part, the compound after the results:

pA2 | Compound
6.53 | Cc1ccc(N2CCN(CCNC(=O)c3cccnc3)CC2)cc1
6.5 | Cc1ccc(N2CCN(CCNC(=O)c3ccncc3)CC2)cc1
5.95 | COc1ccc(N2CCN(CCNC(=O)c3ccncc3)CC2)cc1
6.92 | Cc1ccc(N2CCN(CCNC(=O)c3cc4ccccc4o3)CC2)cc1
5.94 | Cc1ccc(N2CCN(CCNC(=O)c3cccnc3)CC2)c(C)c1
7.87 | COc1ccccc1N1CCN(CCNC(=O)c2cccnc2)CC1
5.79 | COc1ccc(N2CCN(CCNC(=O)c3cccnc3)CC2)cc1
6.47 | Cc1ccc(N2CCN(CCNC(=O)c3ccco3)CC2)cc1
5.56 | COc1ccc(Cl)cc1N1CCN(CCNC(=O)c2cccnc2)CC1
